Results published in the supplement of paper PMC10307832.

Legend:
Experiment in all cases: relative viability (nuclei count vs DMSO), 5 days (fraction); higher = more cells survive
BEN = test system: BEN
In short: (§1)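 After 5 days of treatment, lung cancer cells in 1536-well plates were fixed and stained in a single step (final 0.05% Triton X-100, 1% formaldehyde, 1 ug/ml Hoechst) and their nuclei counted on 4× images. Treatment had been applied by pin tool the day after seeding as one drug alone or as a fixed anchor-drug dose with five library-drug doses (not always all listed) in √10 steps. Relative viability is the nuclei count of treated wells divided by that of vehicle wells, and values are medians of duplicate plates.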

CAL-12T = test system: CAL-12T
In short: as §1

COR-L 105 = test system: COR-L 105
In short: as §1

COR-L23 = test system: COR-L23
In short: as §1

HARA = test system: HARA
In short: as §1

HCC-15 = test system: HCC-15
In short: as §1

HCC-366 = test system: HCC-366
In short: as §1

HCC-44 = test system: HCC-44
In short: as §1

HCC-827 = test system: HCC-827
In short: as §1

HOP-62 = test system: HOP-62
In short: as §1

LC-2-ad = test system: LC-2-ad
In short: as §1

LCLC-97TM1 = test system: LCLC-97TM1
In short: as §1

LU99A = test system: LU99A
In short: as §1

LXF-289 = test system: LXF-289
In short: as §1

NCI-H1993 = test system: NCI-H1993
In short: as §1

NCI-H2009 = test system: NCI-H2009
In short: as §1

NCI-H2087 = test system: NCI-H2087
In short: as §1

NCI-H2126 = test system: NCI-H2126
In short: as §1

NCI-H2170 = test system: NCI-H2170
In short: as §1

NCI-H727 = test system: NCI-H727
In short: as §1

PC-14 = test system: PC-14
In short: as §1

PC-3 [JPC-3] = test system: PC-3 [JPC-3]
In short: as §1

SK-MES-1 = test system: SK-MES-1
In short: as §1

## O=C(O)CCCCC(CCSCc1ccccc1)SCc1ccccc1 (stereo not given) [CPI-613] + C[C@@H](Oc1cc(-c2cnn(C3CCNCC3)c2)cnc1N)c1c(Cl)ccc(F)c1Cl [Crizotinib] (partner 1 µM)
BEN; first compound 5 µM
  relative viability: 0.802
BEN; first compound 15.81 µM
  relative viability: 0.739
BEN; first compound 50 µM
  relative viability: 0.807
BEN; first compound 158.11 µM
  relative viability: 0.743
BEN; first compound 500 µM
  relative viability: 0.769
CAL-12T; first compound 5 µM
  relative viability: 0.596
CAL-12T; first compound 15.81 µM
  relative viability: 0.504
CAL-12T; first compound 50 µM
  relative viability: 0.471
CAL-12T; first compound 158.11 µM
  relative viability: 0.0667
CAL-12T; first compound 500 µM
  relative viability: 0.0085
COR-L 105; first compound 5 µM
  relative viability: 0.727
COR-L 105; first compound 15.81 µM
  relative viability: 0.772
COR-L 105; first compound 50 µM
  relative viability: 0.753
COR-L 105; first compound 158.11 µM
  relative viability: 0.242
COR-L 105; first compound 500 µM
  relative viability: 0.169
COR-L23; first compound 5 µM
  relative viability: 0.635
COR-L23; first compound 15.81 µM
  relative viability: 0.598
COR-L23; first compound 50 µM
  relative viability: 0.647
COR-L23; first compound 158.11 µM
  relative viability: 0.226
COR-L23; first compound 500 µM
  relative viability: 0.0141
HARA; first compound 5 µM
  relative viability: 1.04
HARA; first compound 15.81 µM
  relative viability: 1.09
HARA; first compound 50 µM
  relative viability: 1.02
HARA; first compound 158.11 µM
  relative viability: 0.397
HARA; first compound 500 µM
  relative viability: 0.247
HCC-15; first compound 5 µM
  relative viability: 0.772
HCC-15; first compound 15.81 µM
  relative viability: 0.746
HCC-15; first compound 50 µM
  relative viability: 0.776
HCC-15; first compound 158.11 µM
  relative viability: 0.367
HCC-15; first compound 500 µM
  relative viability: 0.326
HCC-366; first compound 5 µM
  relative viability: 0.533
HCC-366; first compound 15.81 µM
  relative viability: 0.483
HCC-366; first compound 50 µM
  relative viability: 0.381
HCC-366; first compound 158.11 µM
  relative viability: 0.331
HCC-366; first compound 500 µM
  relative viability: 0.0154
HCC-44; first compound 5 µM
  relative viability: 0.834
HCC-44; first compound 15.81 µM
  relative viability: 0.791
HCC-44; first compound 50 µM
  relative viability: 0.785
HCC-44; first compound 158.11 µM
  relative viability: 0.295
HCC-44; first compound 500 µM
  relative viability: 0.0369
HCC-827; first compound 5 µM
  relative viability: 0.878
HCC-827; first compound 15.81 µM
  relative viability: 0.906
HCC-827; first compound 50 µM
  relative viability: 0.843
HCC-827; first compound 158.11 µM
  relative viability: 0.412
HCC-827; first compound 500 µM
  relative viability: 0.225
HOP-62; first compound 5 µM
  relative viability: 0.862
HOP-62; first compound 15.81 µM
  relative viability: 0.85
HOP-62; first compound 50 µM
  relative viability: 0.851
HOP-62; first compound 158.11 µM
  relative viability: 0.172
HOP-62; first compound 500 µM
  relative viability: 0.387
LC-2-ad; first compound 5 µM
  relative viability: 0.444
LC-2-ad; first compound 15.81 µM
  relative viability: 0.432
LC-2-ad; first compound 50 µM
  relative viability: 0.417
LC-2-ad; first compound 158.11 µM
  relative viability: 0.529
LC-2-ad; first compound 500 µM
  relative viability: 0.51
LCLC-97TM1; first compound 5 µM
  relative viability: 0.465
LCLC-97TM1; first compound 15.81 µM
  relative viability: 0.516
LCLC-97TM1; first compound 50 µM
  relative viability: 0.379
LCLC-97TM1; first compound 158.11 µM
  relative viability: 0.11
LCLC-97TM1; first compound 500 µM
  relative viability: 0.0433
LU99A; first compound 5 µM
  relative viability: 0.618
LU99A; first compound 15.81 µM
  relative viability: 0.546
LU99A; first compound 50 µM
  relative viability: 0.589
LU99A; first compound 158.11 µM
  relative viability: 0.168
LU99A; first compound 500 µM
  relative viability: 0.0638
LXF-289; first compound 5 µM
  relative viability: 0.776
LXF-289; first compound 15.81 µM
  relative viability: 0.764
LXF-289; first compound 50 µM
  relative viability: 0.73
LXF-289; first compound 158.11 µM
  relative viability: 0.295
LXF-289; first compound 500 µM
  relative viability: 0.0479
NCI-H1993; first compound 5 µM
  relative viability: 0.862
NCI-H1993; first compound 15.81 µM
  relative viability: 0.852
NCI-H1993; first compound 50 µM
  relative viability: 1.01
NCI-H1993; first compound 158.11 µM
  relative viability: 0.639
NCI-H1993; first compound 500 µM
  relative viability: 0.438
NCI-H2009; first compound 5 µM
  relative viability: 1.1
NCI-H2009; first compound 15.81 µM
  relative viability: 1.01
NCI-H2009; first compound 50 µM
  relative viability: 1.04
NCI-H2009; first compound 158.11 µM
  relative viability: 0.462
NCI-H2009; first compound 500 µM
  relative viability: 0.0097
NCI-H2087; first compound 5 µM
  relative viability: 0.909
NCI-H2087; first compound 15.81 µM
  relative viability: 0.706
NCI-H2087; first compound 50 µM
  relative viability: 0.706
NCI-H2087; first compound 158.11 µM
  relative viability: 0.132
NCI-H2087; first compound 500 µM
  relative viability: 0.0499
NCI-H2126; first compound 5 µM
  relative viability: 1.01
NCI-H2126; first compound 15.81 µM
  relative viability: 0.999
NCI-H2126; first compound 50 µM
  relative viability: 0.942
NCI-H2126; first compound 158.11 µM
  relative viability: 0.706
NCI-H2126; first compound 500 µM
  relative viability: 0.23
NCI-H2170; first compound 5 µM
  relative viability: 1.15
NCI-H2170; first compound 15.81 µM
  relative viability: 1.18
NCI-H2170; first compound 50 µM
  relative viability: 1.13
NCI-H2170; first compound 158.11 µM
  relative viability: 0.746
NCI-H2170; first compound 500 µM
  relative viability: 0.335
NCI-H727; first compound 5 µM
  relative viability: 0.875
NCI-H727; first compound 15.81 µM
  relative viability: 0.743
NCI-H727; first compound 50 µM
  relative viability: 0.797
NCI-H727; first compound 158.11 µM
  relative viability: 0.244
NCI-H727; first compound 500 µM
  relative viability: 0.0831
PC-14; first compound 5 µM
  relative viability: 0.871
PC-14; first compound 15.81 µM
  relative viability: 0.939
PC-14; first compound 50 µM
  relative viability: 0.799
PC-14; first compound 158.11 µM
  relative viability: 0.848
PC-14; first compound 500 µM
  relative viability: 0.33
PC-3 [JPC-3]; first compound 5 µM
  relative viability: 0.977
PC-3 [JPC-3]; first compound 15.81 µM
  relative viability: 0.89
PC-3 [JPC-3]; first compound 50 µM
  relative viability: 0.889
PC-3 [JPC-3]; first compound 158.11 µM
  relative viability: 0.648
PC-3 [JPC-3]; first compound 500 µM
  relative viability: 0.324
SK-MES-1; first compound 5 µM
  relative viability: 0.918
SK-MES-1; first compound 15.81 µM
  relative viability: 0.961
SK-MES-1; first compound 50 µM
  relative viability: 0.936
SK-MES-1; first compound 158.11 µM
  relative viability: 0.926
SK-MES-1; first compound 500 µM
  relative viability: 0.734
